Legend:
Assay in all cases: minimum inhibition concentration and Kull synergy index of LAE / potassium sorbate
Assay type in all cases: cell-based
[1] = tested on: Bacillus subtilis (CECT 356); conditions: for SI, synergy index: <1 synergism, 1 addition, >1 antagonism
Description: The invention is now explained by a number of examples. In these examples LAE and sorbate alone and in a number of different combinations have been investigated against a number of bacterial preparations. For the analysis usually an internal method was used. Conditions and medium were Mueller Hinton broth (pH 7.4) or (pH 5.0) for bacteria, Sabouraud broth (pH 5.8) for yeast and Sabouraud medium for moulds. […] The interaction of the two components of the antimicrobial mixture is calculated according to the method described by Kull et al. (Kull […]. and Mayer R. L., Applied Microbiology, 1961; 6:538-541). According to this method the so-called synergy index is calculated according to the following formula: Synergy index […]. […] All indicated symbols indicate a particular concentration leading to a particular end point, in this case the inhibition of growth of Bacillus subtilis, so that the selected end point is in fact the minimal inhibitory concentration (mic).

[2] = tested on: Bacillus megaterium (CECT 44); conditions: pH 7.4, aqueous solutions
Description: (§1) The invention is now explained by a number of examples. In these examples LAE and sorbate alone and in a number of different combinations have been investigated against a number of bacterial preparations. For the analysis usually an internal method was used. Conditions and medium were Mueller Hinton broth (pH 7.4) or (pH 5.0) for bacteria, Sabouraud broth (pH 5.8) for yeast and Sabouraud medium for moulds. The interaction of the two components of the antimicrobial mixture is calculated according to the method described by Kull et al. (Kull […]. and Mayer R. L., Applied Microbiology, 1961; 6:538-541). According to this method the so-called synergy index is calculated according to the following formula: Synergy index […]. […] Again the effects of the components alone and in combination have been calculated using the same method as described at Example 1.

[3] = tested on: Staphylococcus aureus (ATCC 6538); conditions: for SI, synergy index: <1 synergism, 1 addition, >1 antagonism
Description: as §1

[4] = tested on: Citrobacter intermedium (CECT 401); conditions: for SI, synergy index: <1 synergism, 1 addition, >1 antagonism
Description: (§2) The invention is now explained by a number of examples. In these examples LAE and sorbate alone and in a number of different combinations have been investigated against a number of bacterial preparations. For the analysis usually an internal method was used. Conditions and medium were Mueller Hinton broth (pH 7.4) or (pH 5.0) for bacteria, Sabouraud broth (pH 5.8) for yeast and Sabouraud medium for moulds. The interaction of the two components of the antimicrobial mixture is calculated according to the method described by Kull et al. (Kull […]. and Mayer R. L., Applied Microbiology, 1961; 6:538-541). According to this method the so-called synergy index is calculated according to the following formula: Synergy index […]. […] The same method was used as described for example 1. […] Again the effects of the components alone and in combination have been calculated using the same method as described at Example 1.

[5] = tested on: Cladosporium cladosporioides (ATCC 16022); conditions: for SI, synergy index: <1 synergism, 1 addition, >1 antagonism
Description: as §2

[6] = tested on: Enterobacter aerogenes (ATCC 13048); conditions: for SI, synergy index: <1 synergism, 1 addition, >1 antagonism
Description: as §2

[7] = tested on: Escherichia coli (ATCC 8739); conditions: for SI, synergy index: <1 synergism, 1 addition, >1 antagonism
Description: as §2

[8] = tested on: Penicillium camemberti (CECT 2267); conditions: for SI, synergy index: <1 synergism, 1 addition, >1 antagonism
Description: as §2

[9] = tested on: Candida albicans (ATCC 10231); conditions: for SI, synergy index: <1 synergism, 1 addition, >1 antagonism
Description: as §2, with “Conditions and medium were Mueller Hinton broth (pH 7.4) or (pH 5.0) for bacteria, Sabouraud broth (pH 5.8) for yeast and Sabouraud medium for moulds.” left out

[10] = pH 7.4, propylene glycol solutions

SMILES: C/C=C/C=C/C(=O)[O-].[K+] [potassium sorbate]
- QS, minimum inhibition concentration of potassium sorbate as single antimicrobial ([1]; pH 5.0): 1024
- Qlae, minimum inhibition concentration of LAE in the mixture ([1]; pH 5.0): 0
- Qlae/QLAE ([1]; pH 5.0): 0
- Qs, minimum inhibition concentration of potassium sorbate in the mixture ([1]; pH 5.0): 1024.00
- Qs/QS ([1]; pH 5.0): 1.00
- SI, synergy index ([1]; pH 5.0): 1.00
- QS, minimum inhibition concentration of potassium sorbate as single antimicrobial [1, 10]: 1024
- Qlae, minimum inhibition concentration of LAE in the mixture [1, 10]: 0
- Qlae/QLAE [1, 10]: 0
- Qs, minimum inhibition concentration of potassium sorbate in the mixture [1, 10]: 1024
- Qs/QS [1, 10]: 1.00
- SI, synergy index [1, 10]: 1.00
- QS, minimum inhibition concentration of potassium sorbate as single antimicrobial [2]: 1024
- Qlae, minimum inhibition concentration of LAE in the mixture [2]: 0
- Qlae/QLAE [2]: 0
- Qs, minimum inhibition concentration of potassium sorbate in the mixture [2]: 1024
- Qs/QS [2]: 1.00
- SI, synergy index ([2]; <1 synergism, 1 addition, >1 antagonism): 1.00
- QS, minimum inhibition concentration of potassium sorbate as single antimicrobial ([3]; pH 5.0): 1024
- Qlae, minimum inhibition concentration of LAE in the mixture ([3]; pH 5.0): 0
- Qlae/QLAE ([3]; pH 5.0): 0
- Qs, minimum inhibition concentration of potassium sorbate in the mixture ([3]; pH 5.0): 1024.00
- Qs/QS ([3]; pH 5.0): 1.00
- SI, synergy index ([3]; pH 5.0): 1.00
- QS, minimum inhibition concentration of potassium sorbate as single antimicrobial ([3]; pH 7.4, aqueous solutions): 1536
- Qlae, minimum inhibition concentration of LAE in the mixture ([3]; pH 7.4, aqueous solutions): 0
- Qlae/QLAE ([3]; pH 7.4, aqueous solutions): 0.0
- Qs, minimum inhibition concentration of potassium sorbate in the mixture ([3]; pH 7.4, aqueous solutions): 1536
- Qs/QS ([3]; pH 7.4, aqueous solutions): 1.00
- SI, synergy index ([3]; pH 7.4, aqueous solutions): 1.00
- QS, minimum inhibition concentration of potassium sorbate as single antimicrobial ([4]; pH 5.0): 512
- Qlae, minimum inhibition concentration of LAE in the mixture ([4]; pH 5.0): 0
- Qlae/QLAE ([4]; pH 5.0): 0
- Qs, minimum inhibition concentration of potassium sorbate in the mixture ([4]; pH 5.0): 1024.00
- Qs/QS ([4]; pH 5.0): 1.00
- SI, synergy index ([4]; pH 5.0): 1.00
- QS, minimum inhibition concentration of potassium sorbate as single antimicrobial ([4]; pH 7.4, aqueous solutions): 1536
- Qlae, minimum inhibition concentration of LAE in the mixture ([4]; pH 7.4, aqueous solutions): 0
- Qlae/QLAE ([4]; pH 7.4, aqueous solutions): 0
- Qs, minimum inhibition concentration of potassium sorbate in the mixture ([4]; pH 7.4, aqueous solutions): 1536
- Qs/QS ([4]; pH 7.4, aqueous solutions): 1.00
- SI, synergy index ([4]; pH 7.4, aqueous solutions): 1.00
- QS, minimum inhibition concentration of potassium sorbate as single antimicrobial ([5]; pH 5.0): 1024
- Qlae, minimum inhibition concentration of LAE in the mixture ([5]; pH 5.0): 0
- Qlae/QLAE ([5]; pH 5.0): 0
- Qs, minimum inhibition concentration of potassium sorbate in the mixture ([5]; pH 5.0): 1024.00
- Qs/QS ([5]; pH 5.0): 1.00
- SI, synergy index ([5]; pH 5.0): 1.00
- QS, minimum inhibition concentration of potassium sorbate as single antimicrobial ([5]; pH 7.4, aqueous solutions): 1024
- Qlae, minimum inhibition concentration of LAE in the mixture ([5]; pH 7.4, aqueous solutions): 0
- Qlae/QLAE ([5]; pH 7.4, aqueous solutions): 0.00
- Qs, minimum inhibition concentration of potassium sorbate in the mixture ([5]; pH 7.4, aqueous solutions): 1024
- Qs/QS ([5]; pH 7.4, aqueous solutions): 1.00
- SI, synergy index ([5]; pH 7.4, aqueous solutions): 1.00
- QS, minimum inhibition concentration of potassium sorbate as single antimicrobial ([6]; pH 5.0): 1024
- Qlae, minimum inhibition concentration of LAE in the mixture ([6]; pH 5.0): 0
- Qlae/QLAE ([6]; pH 5.0): 0
- Qs, minimum inhibition concentration of potassium sorbate in the mixture ([6]; pH 5.0): 1024.00
- Qs/QS ([6]; pH 5.0): 1.00
- SI, synergy index ([6]; pH 5.0): 1.00
- QS, minimum inhibition concentration of potassium sorbate as single antimicrobial ([6]; pH 7.4, aqueous solutions): 1536
- Qlae, minimum inhibition concentration of LAE in the mixture ([6]; pH 7.4, aqueous solutions): 0
- Qs, minimum inhibition concentration of potassium sorbate in the mixture ([6]; pH 7.4, aqueous solutions): 1536
- Qs/QS ([6]; pH 7.4, aqueous solutions): 1.00
- SI, synergy index ([6]; pH 7.4, aqueous solutions): 1.00
- QS, minimum inhibition concentration of potassium sorbate as single antimicrobial ([7]; pH 5.0): 1024
- Qlae, minimum inhibition concentration of LAE in the mixture ([7]; pH 5.0): 0
- Qlae/QLAE ([7]; pH 5.0): 0
- Qs, minimum inhibition concentration of potassium sorbate in the mixture ([7]; pH 5.0): 1024.00
- Qs/QS ([7]; pH 5.0): 1.00
- SI, synergy index ([7]; pH 5.0): 1.00
- QS, minimum inhibition concentration of potassium sorbate as single antimicrobial ([7]; pH 7.4, aqueous solutions): 1536
- Qlae, minimum inhibition concentration of LAE in the mixture ([7]; pH 7.4, aqueous solutions): 0
- Qlae/QLAE ([7]; pH 7.4, aqueous solutions): 0
- Qs, minimum inhibition concentration of potassium sorbate in the mixture ([7]; pH 7.4, aqueous solutions): 1536
- Qs/QS ([7]; pH 7.4, aqueous solutions): 1.00
- SI, synergy index ([7]; pH 7.4, aqueous solutions): 1.00
- QS, minimum inhibition concentration of potassium sorbate as single antimicrobial ([8]; pH 5.0): 1024
- Qlae, minimum inhibition concentration of LAE in the mixture ([8]; pH 5.0): 0
- Qlae/QLAE ([8]; pH 5.0): 0
- Qs, minimum inhibition concentration of potassium sorbate in the mixture ([8]; pH 5.0): 1024.00
- Qs/QS ([8]; pH 5.0): 1.00
- SI, synergy index ([8]; pH 5.0): 1.00
- QS, minimum inhibition concentration of potassium sorbate as single antimicrobial ([8]; pH 7.4, aqueous solutions): 2048
- Qlae, minimum inhibition concentration of LAE in the mixture ([8]; pH 7.4, aqueous solutions): 0
- Qlae/QLAE ([8]; pH 7.4, aqueous solutions): 0
- Qs, minimum inhibition concentration of potassium sorbate in the mixture ([8]; pH 7.4, aqueous solutions): 2048
- Qs/QS ([8]; pH 7.4, aqueous solutions): 1.00
- SI, synergy index ([8]; pH 7.4, aqueous solutions): 1.00
- QS, minimum inhibition concentration of potassium sorbate as single antimicrobial ([9]; pH 5.0): 1024
- Qlae, minimum inhibition concentration of LAE in the mixture ([9]; pH 5.0): 0
- Qlae/QLAE ([9]; pH 5.0): 0
- Qs, minimum inhibition concentration of potassium sorbate in the mixture ([9]; pH 5.0): 1024.00
- Qs/QS ([9]; pH 5.0): 1.00
- SI, synergy index ([9]; pH 5.0): 1.00
- QS, minimum inhibition concentration of potassium sorbate as single antimicrobial ([9]; pH 7.4, aqueous solutions): 1024
- Qlae, minimum inhibition concentration of LAE in the mixture ([9]; pH 7.4, aqueous solutions): 0
- Qlae/QLAE ([9]; pH 7.4, aqueous solutions): 0
- Qs, minimum inhibition concentration of potassium sorbate in the mixture ([9]; pH 7.4, aqueous solutions): 1024.00
- Qs/QS ([9]; pH 7.4, aqueous solutions): 1.00
- SI, synergy index ([9]; pH 7.4, aqueous solutions): 1.00

Reference: patent publication US7074447B2 (Laboratories Miret, S.A., priority 2001, dated 2006)
